Data published in patent US20230398130A1, “METHODS AND COMPOSITIONS FOR DIFFERENTIATING STEM CELLS” (Massachusetts Institute of Technology, priority 2020, published 2023).

Tests used:
[1] = system: ISC-enriched organoids; assay: Primary screen, 384-well 2.5-D organoid differentiation (ENR+CD, 6 days): carbachol-induced lysozyme secretion (LYZ.S); type: cell-based, murine; conditions: for Dose.FC.LYZ.S: FC vs plate median; for Z.LYZ.S: standard z score; for SSMD.LYZ.S: strictly standardized mean difference
From the text: (§1) High-throughput screening.

[2] = system: ISC-enriched organoids; assay: Primary screen, 384-well 2.5-D organoid differentiation (ENR+CD, 6 days): basal lysozyme secretion (LYZ.NS); type: cell-based, murine; conditions: for Dose.FC.LYZ.NS: FC vs plate median; for SSMD.LYZ.NS: strictly standardized mean difference
From the text: as §1

[3] = system: ISC-enriched organoids; assay: Primary screen, 384-well 2.5-D organoid differentiation (ENR+CD, 6 days, Target Selective Inhibitor Library, vs whole-plate median): ATP (CellTiter-Glo 3D, CTG); conditions: for Dose.FC.CTG: FC vs plate median; for SSMD.CTG: strictly standardized mean difference
[4] = Dose 0.08 uM, standard z score of FC
[5] = Dose 0.40 uM, standard z score of FC
[6] = Dose 2.00 uM, standard z score of FC
[7] = Dose 10.00 uM, standard z score of FC
[8] = Dose 0.08 uM, primary screen, standard z score
[9] = Dose 0.40 uM, primary screen, standard z score
[10] = Dose 2.00 uM, primary screen, standard z score
[11] = Dose 10.00 uM, primary screen, standard z score
[12] = primary screen, 1st of the 4 dose lines of the treatment (dose not given)
[13] = primary screen, 2nd of the 4 dose lines of the treatment (dose not given)
[14] = primary screen, 3rd of the 4 dose lines of the treatment (dose not given)
[15] = primary screen, 4th of the 4 dose lines of the treatment (dose not given)

SMILES: CC1C(=O)OC2C(O)C34C5CC(C(C)(C)C)C36C(OC(=O)C6O)OC4(C(=O)O5)C12O (centres unmarked) [Ginkgolide B]
- Dose.FC.LYZ.S ([1]; Dose 0.08 uM, ENR+CD, 6 days): 0.034 log 2 fold change
- Dose.FC.LYZ.S ([1]; Dose 0.40 uM, ENR+CD, 6 days): 0.047 log 2 fold change
- Dose.FC.LYZ.S ([1]; Dose 2.00 uM, ENR+CD, 6 days): 0.033 log 2 fold change
- Dose.FC.LYZ.S ([1]; Dose 10.00 uM, ENR+CD, 6 days): −0.035 log 2 fold change
- Dose.FC.LYZ.NS ([2]; Dose 0.08 uM, ENR+CD, 6 days): 0.041 log 2 fold change
- Z.LYZ.NS [2, 4]: 0.353
- Dose.FC.LYZ.NS ([2]; Dose 0.40 uM, ENR+CD, 6 days): 0.109 log 2 fold change
- Z.LYZ.NS [2, 5]: 0.950
- Dose.FC.LYZ.NS ([2]; Dose 2.00 uM, ENR+CD, 6 days): 0.061 log 2 fold change
- Z.LYZ.NS [2, 6]: 0.528
- Dose.FC.LYZ.NS ([2]; Dose 10.00 uM, ENR+CD, 6 days): −0.037 log 2 fold change
- Z.LYZ.NS [2, 7]: −0.326
- Dose.FC.CTG ([3]; Dose 0.08 uM, ENR+CD, 6 days): −0.076 log 2 fold change
- Z.CTG [3, 4]: −0.182
- Dose.FC.CTG ([3]; Dose 0.40 uM, ENR+CD, 6 days): 0.034 log 2 fold change
- Z.CTG [3, 5]: 0.081
- Dose.FC.CTG ([3]; Dose 2.00 uM, ENR+CD, 6 days): −0.154 log 2 fold change
- Z.CTG [3, 6]: −0.369
- Dose.FC.CTG ([3]; Dose 10.00 uM, ENR+CD, 6 days): 0.177 log 2 fold change
- Z.CTG [3, 7]: 0.422

SMILES: Cc1ccc(S(=O)(=O)NC(=O)NN2CC3CCCC3C2)cc1 (centres unmarked) [Gliclazide]
- Dose.FC.LYZ.S ([1]; Dose 10.00 uM, ENR+CD, 6 days): −0.060 log 2 fold change
- Dose.FC.LYZ.NS ([2]; Dose 10.00 uM, ENR+CD, 6 days): −0.035 log 2 fold change
- Z.CTG [3, 4]: 0.386
- Z.CTG [3, 5]: 0.128
- Z.CTG [3, 6]: 0.020
- Dose.FC.CTG ([3]; Dose 10.00 uM, ENR+CD, 6 days): −0.092 log 2 fold change
- Z.CTG [3, 7]: −0.219

SMILES: COc1ccc2c(c1)c(C1=C(c3c[nH]c4ccccc34)C(=O)NC1=O)cn2CCCN(C)C [Go 6983]
- Dose.FC.LYZ.S ([1]; Dose 0.08 uM, primary screen): 0.021 log 2 fold change
- Dose.FC.LYZ.S ([1]; Dose 0.40 uM, primary screen): 0.007 log 2 fold change
- Dose.FC.LYZ.S ([1]; Dose 2.00 uM, primary screen): −0.010 log 2 fold change
- Dose.FC.LYZ.S ([1]; Dose 10.00 uM, primary screen): −0.073 log 2 fold change
- Dose.FC.LYZ.NS ([2]; Dose 0.08 uM, primary screen): −0.005 log 2 fold change
- Z.LYZ.NS [2, 8]: −0.046
- Dose.FC.LYZ.NS ([2]; Dose 0.40 uM, primary screen): 0.013 log 2 fold change
- Z.LYZ.NS [2, 9]: 0.114
- Dose.FC.LYZ.NS ([2]; Dose 2.00 uM, primary screen): 0.091 log 2 fold change
- Z.LYZ.NS [2, 10]: 0.791
- Dose.FC.LYZ.NS ([2]; Dose 10.00 uM, primary screen): −0.092 log 2 fold change
- Z.LYZ.NS [2, 11]: −0.798
- Dose.FC.CTG ([3]; Dose 0.08 uM, primary screen): 0.021 log 2 fold change
- Z.CTG [3, 8]: 0.050
- Dose.FC.CTG ([3]; Dose 0.40 uM, primary screen): −0.036 log 2 fold change
- Z.CTG [3, 9]: −0.085
- Dose.FC.CTG ([3]; Dose 2.00 uM, primary screen): 0.058 log 2 fold change
- Z.CTG [3, 10]: 0.138
- Dose.FC.CTG ([3]; Dose 10.00 uM, primary screen): −0.181 log 2 fold change
- Z.CTG [3, 11]: −0.433

SMILES: Cl.Cl.O=S(=O)(NCCNC/C=C/c1ccc(Br)cc1)c1cccc2cnccc12 [H 89 2HCl]
- Dose.FC.LYZ.S ([1]; Dose 0.08 uM, primary screen): 0.118 log 2 fold change
- Dose.FC.LYZ.S ([1]; Dose 0.40 uM, primary screen): 0.148 log 2 fold change
- Dose.FC.LYZ.S ([1]; Dose 2.00 uM, primary screen): 0.087 log 2 fold change
- Dose.FC.LYZ.S ([1]; Dose 10.00 uM, primary screen): 0.000 log 2 fold change
- Z.LYZ.S [1, 12]: 0.764
- Z.LYZ.S [1, 13]: 0.955
- Z.LYZ.S [1, 14]: 0.565
- Z.LYZ.S [1, 15]: −0.001
- SSMD.LYZ.S [1, 12]: 0.529
- SSMD.LYZ.S [1, 13]: 0.703
- SSMD.LYZ.S [1, 14]: 0.329
- SSMD.LYZ.S [1, 15]: −0.001
- Dose.FC.LYZ.NS ([2]; Dose 0.08 uM, primary screen): 0.140 log 2 fold change
- Z.LYZ.NS [2, 8]: 1.223
- Dose.FC.LYZ.NS ([2]; Dose 0.40 uM, primary screen): 0.080 log 2 fold change
- Z.LYZ.NS [2, 9]: 0.695
- Dose.FC.LYZ.NS ([2]; Dose 2.00 uM, primary screen): 0.086 log 2 fold change
- Z.LYZ.NS [2, 10]: 0.747
- Dose.FC.LYZ.NS ([2]; Dose 10.00 uM, primary screen): 0.132 log 2 fold change
- Z.LYZ.NS [2, 11]: 1.151
- SSMD.LYZ.NS [2, 12]: 0.995
- SSMD.LYZ.NS [2, 13]: 0.816
- SSMD.LYZ.NS [2, 14]: 0.521
- SSMD.LYZ.NS [2, 15]: 0.374
- Dose.FC.CTG ([3]; Dose 0.08 uM, primary screen): 0.350 log 2 fold change
- Z.CTG [3, 8]: 0.836
- Dose.FC.CTG ([3]; Dose 0.40 uM, primary screen): 0.398 log 2 fold change
- Z.CTG [3, 9]: 0.950
- Dose.FC.CTG ([3]; Dose 2.00 uM, primary screen): 0.421 log 2 fold change
- Z.CTG [3, 10]: 1.005
- Dose.FC.CTG ([3]; Dose 10.00 uM, primary screen): 0.385 log 2 fold change
- Z.CTG [3, 11]: 0.919
- SSMD.CTG [3, 12]: 1.039
- SSMD.CTG [3, 13]: 0.952
- SSMD.CTG [3, 14]: 0.830
- SSMD.CTG [3, 15]: 1.211
